According to patent US20180125774A1, “Method and Composition for Visible Light Dryable Nail Coatings” (priority 2016, published 2018):

What was measured:
Format in all cases: physicochemical
[1] = Solubility of visible light photo-initiator A in solvents; conditions: 25° C.
Text: The following table 2 lists the solubility of the visible light photo-initiator A of the first preferred embodiment of the visible light dryable nail coating according to this present invention.

[2] = Stability (thermal, light, oxidation in air) as described
Text: Any one of several photo-initiators is used in the present invention, wherein the photo-initiators can be either component (A): visible light photo-initiator A or component (B): visible light photo-initiator B. Visible light photo-initiator A is, but not limited to, Bis (η5-2,4-cylcopentadian-1-yl)-bis (2,6-di-fluoro-3-(1H-pyrrol-1-yl) phenyl) titanium. […] More specifically, visible light photo-initiator A is particularly suitable for the curing of photopolymers for imaging or information storage applications where extremely high photosensitivity is required.
It is worth to mention that visible light photo-initiator A is sensitive to visible light and any exposure to sunlight must be avoided. And, the visible light photo-initiator A must be stored in low temperature, which is below 25° C., and dry environment. […] Therefore, opened drums are required to close after use to protect the product against light.
Accordingly, visible light photo-initiator B is, but not limited to, 4,4′-Bis (diethylamino) benzophenone. Visible light photo-initiator B is both an aromatic ketone and a tertiary amine, and acts both as a photosensitizer and an amine synergist.

[3] = Solubility of visible light photo-initiator B in solvents; conditions: 20° C.
Text: The following table 5 lists the solubility of the visible light photo-initiator B of the first preferred embodiment of the visible light dryable nail coating according to this present invention.

[4] = Specification solubility test in acetone
Text: The following table 4 lists the specification of the visible light photo-initiator B of the first preferred embodiment of the visible light dryable nail coating according to this present invention.

Row | Compound | Solubility ([1]; Acetone) [g in 100 ml solvent] | Solubility ([1]; Butyl Acetate) [g in 100 ml solvent] | Solubility ([1]; HDDA) [g in 100 ml solvent] | Solubility ([1]; MEK) [g in 100 ml solvent] | Solubility ([1]; Toluene) [g in 100 ml solvent] | Solubility ([1]; Water) [g in 100 ml solvent] | Thermal stability [2] | Light sensitivity ([2]; dissolved in a solvent or a formulation, daylight and standard fluorescence bulbs) | Solubility ([3]; Acetone) [% w/w] | Solubility ([3]; Butyl Acetate) [% w/w] | Solubility ([3]; Ethyl acetate) [% w/w] | Solubility ([3]; Methanol) [% w/w] | Solubility ([3]; Toluene) [% w/w] | Solubility ([3]; Water) [% w/w] | Resistance to oxidation ([2]; exposure in air, versus most commercially available EMK) | Solubility (3 g/10 mL Acetone) [4]
1 | Fc1ccc(-n2cccc2)c(F)[c]1[Ti+2][c]1c(F)ccc(-n2cccc2)c1F.c1cc[cH-]c1.c1cc[cH-]c1 [visible light photo-initiator A, Bis (η5-2,4-cylcopentadian-1-yl)-bis (2,6-di-fluoro-3-(1H-pyrrol-1-yl)phenyl) titanium] | 30 | 2 | 10 | 30 | 10 | <0.5 | good thermal stability | extremely sensitive to daylight and light from standard fluorescence bulbs | – | – | – | – | – | – | – | –
2 | CCN(CC)c1ccc(C(=O)c2ccc(N(CC)CC)cc2)cc1 [visible light photo-initiator B, 4,4′-Bis (diethylamino) benzophenone] | – | – | – | – | – | – | – | – | 30 | 30 | 24 | 7.0 | 25 | <0.01 | more resistant to oxidation by exposure in air than most commercially available EMK | Clear solution
